{"source": "patent US8685929B2", "about": "“Detecting CYP24 expression level as a marker for predisposition to cancer” (The Regents of the University of California, priority 1999, dated 2014)", "key": {"[1]": {"test_system": "CYP24 gene expression in BT474 cell line", "test": "RT-PCR of CYP24 gene expression in the BT474 cell line with induction by 1,25-dihydroxyvitamin D3", "assay_type": "cell-based, human", "conditions": "BT474 cells, 10^-8M 1,25-dihydroxyvitamin D3 added to the culture medium; FIG. 3C", "protocol": "(§1) FIG. 3 illustrates expression of CYP24, VDR and ZNF217 genes in human breast cancer cell lines and tumors with and without induction by 1,25-dihydroxyvitamin D3 evaluated by RT-PCR. (a) Time course of induction of CYP24 gene expression in MCF7 breast cancer cells incubated with 10^−8M 1,25-dihydroxyvitamin D3 and vehicle control (ethanol, EtOH). (b) Gene expression in two breast cancer tumors, S21 and S59. (c) Gene expression in the BT474 cell line. Cells were incubated with 10^−8M 1,25-dihydroxyvitamin D3, as described in (a).\n(§2) Previously, CYP24 had been discounted as a candidate oncogene because it was not found to be transcribed in the breast cancer cell line, BT474 (Collins et al. (1998) Proc. Natl. Acad. Sci. USA 95: 8703-8708). However, re-evaluation of expression of CYP24 in cell lines and tumors was warranted because of its position at the peak of the copy number profile and because of the existing knowledge of its function. Therefore we examined expression levels of CYP24 and the vitamin D receptor (VDR), which controls CYP24 expression by RT-PCR using the primers listed in Table 1. […] Furthermore, expression of CYP24 and VDR was detected in two breast tumors S21 and S59 (FIG. 3B). […] Only low level expression of VDR was found in this cell line, most likely accounting for the failure to detect expression of CYP24 in BT474 without addition of 1,25-dihydroxyvitamin-D3. […]"}, "[2]": {"test_system": "CYP24 gene expression in MCF7 breast cancer cells", "test": "RT-PCR of CYP24 gene expression in MCF7 breast cancer cells with induction by 1,25-dihydroxyvitamin D3", "assay_type": "cell-based, human", "conditions": "MCF7 cells incubated with 10^-8M 1,25-dihydroxyvitamin D3 vs vehicle control (ethanol); FIG. 3A", "protocol": "as §1, §2"}}, "data": [{"smiles": "C=C1/C(=C\\C=C2/CCC[C@]3(C)[C@@H]([C@H](C)CCCC(C)(C)O)CC[C@@H]23)C[C@@H](O)C[C@@H]1O", "note": "[1,25-dihydroxyvitamin-D3]", "values": [{"measurement": "expression of CYP24 (RT-PCR)", "setting": "[1]", "result": "CYP24 expression was not detected without addition of 1,25-dihydroxyvitamin-D3"}, {"measurement": "expression of CYP24 (RT-PCR)", "setting": "[2]", "result": "higher levels of expression of CYP24 were induced"}]}]}
